Read-outs that look alike come from different tables or passages of the source.
System: A. non-baumannii isolates (n = 87)
Assay: MIC, broth microdilution (EUCAST), A. non-baumannii isolates
Type: cell-based, Acinetobacter spp. (non-baumannii)
Conditions: for MIC: in combinations ETZ fixed at 8 mg/L
Description: The bacterial strains used in this study comprised 208 clinical isolates from the Spanish National Acinetobacter spp. 2020 Multicenter Collection, which was previously characterized in detail by our research group, including whole-genome sequencing, phylogenetics studies, clonal dynamics, and resistance mechanisms ([2], [29]). Additionally, a collection of A. baumannii ATCC 17978 transformants coding the blaOXA-23, blaOXA-24/40, blaOXA-51, blaOXA-58, blaOXA-143, and blaOXA-201 genes, previously constructed and described by our group ([30]), was used to determine the activity of enmetazobactam against strains carrying the main CHDLs of A. baumannii.
The antimicrobial susceptibility of the 208 Acinetobacter spp. isolates was assessed using the broth microdilution method, as described in the European Committee on Antimicrobial Susceptibility Testing (EUCAST) v.15 guidelines (http://www.eucast.org/clinical_breakpoints). […] MICs for enmetazobactam alone were assessed as well. […] Subsequently, MIC testing was also conducted with a collection of A. baumannii ATCC 17978 transformants expressing clinically relevant OXA-like carbapenemase genes.
The A. baumannii ATCC 19606 strain was used as the reference strain in all susceptibility experiments, in duplicate assays. Antibiotics were purchased from Sigma-Aldrich, except enmetazobactam and durlobactam, which were obtained from Advanz Pharma and MedChemExpress, respectively.

C[C@@H](O)[C@H]1C(=O)N2C(C(=O)O)=C(SCCN=CN)C[C@H]12 [imipenem]
0.5 µg/mL: MIC (Acinetobacter courvalinii, isolate NO-Ab216, Acinetobacter courvalinii, read-out: MIC)
32 µg/mL: MIC (Acinetobacter junii, isolate NO-Ab77, Acinetobacter junii, OXA-24/40, read-out: MIC) | MIC (Acinetobacter nosocomialis, isolate NO-Ab68, Acinetobacter nosocomialis, OXA-24/40, read-out: MIC)
71.3: MIC distribution 0.12
0.25 µg/mL: MIC (Acinetobacter bereziniae, isolate NO-Ab115, Acinetobacter bereziniae, read-out: MIC) | MIC (Acinetobacter bereziniae, isolate NO-Ab116, Acinetobacter bereziniae, read-out: MIC) | MIC (Acinetobacter bereziniae, isolate NO-Ab129, Acinetobacter bereziniae, read-out: MIC) | MIC (Acinetobacter calcoaceticus, isolate NO-Ab205, Acinetobacter calcoaceticus, read-out: MIC) | MIC (Acinetobacter guillouiae, isolate NO-Ab74, Acinetobacter guillouiae, read-out: MIC) | MIC (Acinetobacter lactucae, isolate NO-Ab60, Acinetobacter dijkshoorniae, read-out: MIC) | MIC (Acinetobacter lactucae, isolate NO-Ab63, Acinetobacter dijkshoorniae, read-out: MIC) | MIC (Acinetobacter lactucae, isolate NO-Ab65, Acinetobacter dijkshoorniae, read-out: MIC) | MIC (Acinetobacter pittii, isolate NO-Ab59, Acinetobacter pittii, read-out: MIC) | MIC (Acinetobacter pittii, isolate NO-Ab66, Acinetobacter pittii, read-out: MIC) | MIC (Acinetobacter pittii, isolate NO-Ab75, Acinetobacter pittii, read-out: MIC)
≤ 0.06 µg/mL: MIC (Acinetobacter calcoaceticus, isolate NO-Ab94, Acinetobacter calcoaceticus, read-out: MIC) | MIC (Acinetobacter calcoaceticus, isolate NO-Ab108, Acinetobacter calcoaceticus, read-out: MIC) | MIC (Acinetobacter calcoaceticus, isolate NO-Ab198, Acinetobacter calcoaceticus, read-out: MIC) | MIC (Acinetobacter dispersus, isolate NO-Ab2, Acinetobacter dispersus, read-out: MIC) | MIC (Acinetobacter guillouiae, isolate NO-Ab69, Acinetobacter guillouiae, read-out: MIC) | MIC (Acinetobacter junii, isolate NO-Ab76, Acinetobacter junii, read-out: MIC) | MIC (Acinetobacter lactucae, isolate NO-Ab125, Acinetobacter dijkshoorniae, read-out: MIC) | MIC (Acinetobacter nosocomialis, isolate NO-Ab43, Acinetobacter nosocomialis, read-out: MIC) | MIC (Acinetobacter pittii, isolate NO-Ab73, Acinetobacter pittii, read-out: MIC) | MIC (Acinetobacter pittii, isolate NO-Ab78, Acinetobacter pittii, read-out: MIC) | MIC (Acinetobacter pittii, isolate NO-Ab82, Acinetobacter pittii, read-out: MIC) | MIC (Acinetobacter pittii, isolate NO-Ab90, Acinetobacter pittii, read-out: MIC)
0.12 µg/mL: MIC (Acinetobacter baylyi, isolate NO-Ab27, Acinetobacter baylyi, read-out: MIC) | MIC (Acinetobacter beijerinckii, isolate NO-Ab122, Acinetobacter beijerinckii, read-out: MIC) | MIC (Acinetobacter bereziniae, isolate NO-Ab70, Acinetobacter bereziniae, read-out: MIC) | MIC (Acinetobacter bereziniae, isolate NO-Ab84, Acinetobacter bereziniae, read-out: MIC) | MIC (Acinetobacter bereziniae, isolate NO-Ab104, Acinetobacter bereziniae, read-out: MIC) | MIC (Acinetobacter bereziniae, isolate NO-Ab114, Acinetobacter bereziniae, read-out: MIC) | MIC (Acinetobacter bereziniae, isolate NO-Ab117, Acinetobacter bereziniae, read-out: MIC) | MIC (Acinetobacter bereziniae, isolate NO-Ab156, Acinetobacter bereziniae, read-out: MIC) | MIC (Acinetobacter calcoaceticus, isolate NO-Ab85, Acinetobacter calcoaceticus, read-out: MIC) | MIC (Acinetobacter calcoaceticus, isolate NO-Ab161, Acinetobacter calcoaceticus, read-out: MIC) | MIC (Acinetobacter calcoaceticus, isolate NO-Ab211, Acinetobacter calcoaceticus, read-out: MIC) | MIC (Acinetobacter haemolyticus, isolate NO-Ab92, Acinetobacter haemolyticus) | MIC (Acinetobacter haemolyticus, isolate NO-Ab177, Acinetobacter haemolyticus) | MIC (Acinetobacter haemolyticus, isolate NO-Ab217, Acinetobacter haemolyticus) | MIC (Acinetobacter johnsonii, isolate NO-Ab101, Acinetobacter johnsonii, read-out: MIC) | MIC (Acinetobacter lactucae, isolate NO-Ab86, Acinetobacter dijkshoorniae, read-out: MIC) | MIC (Acinetobacter lactucae, isolate NO-Ab88, Acinetobacter dijkshoorniae, read-out: MIC) | MIC (Acinetobacter lactucae, isolate NO-Ab91, Acinetobacter dijkshoorniae, read-out: MIC) | MIC (Acinetobacter lactucae, isolate NO-Ab121, Acinetobacter dijkshoorniae, read-out: MIC) | MIC (Acinetobacter lactucae, isolate NO-Ab160, Acinetobacter dijkshoorniae, read-out: MIC) | MIC (Acinetobacter nosocomialis, isolate NO-Ab98, Acinetobacter nosocomialis, read-out: MIC) | MIC (Acinetobacter nosocomialis, isolate NO-Ab208, Acinetobacter nosocomialis, read-out: MIC) | MIC (Acinetobacter pittii, isolate NO-Ab89, Acinetobacter pittii, read-out: MIC)
